# Patent publication US12559750B2, “Methods and compositions for treatment of polycystic kidney disease” (Regulus Therapeutics Inc., priority 2021, dated 2026)
# Test system: AMPA-R
# Assay: [3H]AMPA radioligand binding assay on rat brain synaptic membranes;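 also: competition binding in which test compounds at rising concentrations displace [3H]AMPA from AMPA-R on rat brain synaptic membranes, with reduced bound radioligand as read-out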
# Details: for % Inhibition @ Concentration 100 uM: Table 8 (3′-terminal nucleobase/sugar variants); for % Inhibition @ Concentration 0.1 uM: Table 8, 0.1 uM; for % Inhibition @ Concentration 1 uM: Table 8, 1 uM; for % Inhibition @ Concentration 10 uM: Table 8, 10 uM
# Experimental: The activity of anti-miR-17 compounds was evaluated in a radioligand binding assay which measured the binding of the [^3H] AMPA ligand to the AMPA-R present on rat brain synaptic membranes, in the presence of increasing concentrations of anti-miR-17 compound, anti-miR-17 compounds with affinity for the AMPA-R will bind to and compete with the binding of the [^3H] AMPA ligand.
# 5.0 nM of the ligand [^3H] AMPA, 1.0 mM of the non-specific ligand L-Glutamic acid, and anti-miR compound at uM concentrations were incubated with synaptic membranes prepared from Wistar rat cerebral cortex for 90 minutes.
# The compounds were tested in the radioligand binding assay described herein, to determine the ability of the anti-miR-17 compounds to and compete with the binding of the [3H] AMPA ligand.
sequence,measurement,setting,value
"AECETEGSTEAASGSCMAFCFUFUMUSCS (ACTGTAAGCACUUUC; S-cEt, 2'-MOE, 2'-F, 2'-OMe modifications; modified_base 3 OTHER; thymine; modified_base 5 OTHER; misc_feature 1..15 Synthetic: RG-NG-1018; modified_base 1..3 OTHER; 2'-O-methoxyethyl nucleoside; modified_base 4 OTHER; S-constrained ethyl nucleoside; modified_base 7..8 OTHER; modified_base 9 OTHER; 2'-O-methyl nucleoside; modified_base 10..12 OTHE)",IC50,Experiment #3,> 100 µM
same,% Inhibition @ 0.1 uM,"Experiment #3, 0.1 uM",3%
same,% Inhibition @ 1 uM,"Experiment #3, 1 uM",8.1%
same,% Inhibition @ 10 uM,"Experiment #3, 10 uM",1%
same,% Inhibition @ 100 uM,"Experiment #3, 100 uM",12.3%
AEGECMAFCFUFUMTEGE [RG-NG-1009],IC50,Experiment #2,> 100 µM
same,% Inhibition @ 0.1 uM,"Experiment #2, 0.1 uM",−11.8%
same,% Inhibition @ 1 uM,"Experiment #2, 1 uM",2.7%
same,% Inhibition @ 10 uM,"Experiment #2, 10 uM",13%
same,% Inhibition @ 100 uM,"Experiment #2, 100 uM",32.6%
AEGECMAFCFUFUMUSGS [RG-NG-1010],IC50,Experiment #2,3.44 µM
same,% Inhibition @ 0.1 uM,"Experiment #2, 0.1 uM",0.7%
same,% Inhibition @ 1 uM,"Experiment #2, 1 uM",31.3%
same,% Inhibition @ 10 uM,"Experiment #2, 10 uM",70.1%
same,% Inhibition @ 100 uM,"Experiment #2, 100 uM",86.4%
AFGSCMAFCFUFUMUSGE [RG-NG-1023],IC50,Experiment #3,3.12 µM
same,% Inhibition @ 0.1 uM,"Experiment #3, 0.1 uM",3.1%
same,% Inhibition @ 1 uM,"Experiment #3, 1 uM",25.6%
same,% Inhibition @ 10 uM,"Experiment #3, 10 uM",75.2%
same,% Inhibition @ 100 uM,"Experiment #3, 100 uM",95.3%
ALGLCLALCLTLTLTLGL [RG-NG-1006],IC50,Experiment #1,2.77 µM
same,% Inhibition @ 0.1 uM,"Experiment #1, 0.1 uM",6.7%
same,% Inhibition @ 1 uM,"Experiment #1, 1 uM",35.3%
same,% Inhibition @ 10 uM,"Experiment #1, 10 uM",68.9%
same,% Inhibition @ 100 uM,"Experiment #1, 100 uM",93.9%
ALGLCMAFCFUFUMUSGS [RG-NG-1011],IC50,Experiment #2,2.56 µM
same,% Inhibition @ 0.1 uM,"Experiment #2, 0.1 uM",−2.2%
same,% Inhibition @ 1 uM,"Experiment #2, 1 uM",30.6%
same,% Inhibition @ 10 uM,"Experiment #2, 10 uM",78.5%
same,% Inhibition @ 100 uM,"Experiment #2, 100 uM",94%
AMAMGLCLALCLUMTLUCM [RG-NG-1030],IC50,Experiment #2,> 100 µM
same,% Inhibition @ 0.1 uM,"Experiment #2, 0.1 uM",2.9%
same,% Inhibition @ 1 uM,"Experiment #2, 1 uM",6.5%
same,% Inhibition @ 10 uM,"Experiment #2, 10 uM",15%
same,% Inhibition @ 100 uM,"Experiment #2, 100 uM",1.9%
AMAMGLCLALCLUMTLUM [RG-NG-1031],IC50,Experiment #2,> 100 µM
same,% Inhibition @ 0.1 uM,"Experiment #2, 0.1 uM",−4.3%
same,% Inhibition @ 1 uM,"Experiment #2, 1 uM",1%
same,% Inhibition @ 10 uM,"Experiment #2, 10 uM",2.7%
same,% Inhibition @ 100 uM,"Experiment #2, 100 uM",16.7%
AMGLCLALCLUMTLUCM [RG-NG-1029],IC50,Experiment #2,> 100 µM
same,% Inhibition @ 0.1 uM,"Experiment #2, 0.1 uM",0.9%
same,% Inhibition @ 1 uM,"Experiment #2, 1 uM",15.9%
same,% Inhibition @ 10 uM,"Experiment #2, 10 uM",7%
same,% Inhibition @ 100 uM,"Experiment #2, 100 uM",38.4%
ASASGSCMAFCFUFUMUS [RG-NG-1013],IC50,Experiment #2,> 100 µM
same,% Inhibition @ 0.1 uM,"Experiment #2, 0.1 uM",−3.8%
same,% Inhibition @ 1 uM,"Experiment #2, 1 uM",−5.6%
same,% Inhibition @ 10 uM,"Experiment #2, 10 uM",3.7%
same,% Inhibition @ 100 uM,"Experiment #2, 100 uM",37.2%
"ASCSTGSUSAASGSCMAFCFUFUMUSCS (ACTGUAAGCACUUUC; cEt at 1, 2, 4, 5, 7, 8, 14, 15, 2'-O-methyl at 9, 13, 2'-fluoro at 10, 11, 12, other sugars and backbone not given here) [RG-NG-1019]",IC50,Experiment #3,> 100 µM
same,% Inhibition @ 0.1 uM,"Experiment #3, 0.1 uM",12.9%
same,% Inhibition @ 1 uM,"Experiment #3, 1 uM",17.2%
same,% Inhibition @ 10 uM,"Experiment #3, 10 uM",15.6%
same,% Inhibition @ 100 uM,"Experiment #3, 100 uM",21%
ASGECMAFCFUFUMTEGS [RG-NG-1008],IC50,Experiment #2,56.6 µM
same,% Inhibition @ 0.1 uM,"Experiment #2, 0.1 uM",−22.4%
same,% Inhibition @ 1 uM,"Experiment #2, 1 uM",13.6%
same,% Inhibition @ 10 uM,"Experiment #2, 10 uM",22.1%
same,% Inhibition @ 100 uM,"Experiment #2, 100 uM",59.6%
ASGLCMAFCFUFUMTLGS [RG-NG-1012],IC50,Experiment #2,2.56 µM
same,% Inhibition @ 0.1 uM,"Experiment #2, 0.1 uM",9.9%
same,% Inhibition @ 1 uM,"Experiment #2, 1 uM",38.5%
same,% Inhibition @ 10 uM,"Experiment #2, 10 uM",69%
same,% Inhibition @ 100 uM,"Experiment #2, 100 uM",88.3%
ASGSCFAFCFUFUFUSGS [RG-NG-1007],IC50,Experiment #2,1.69 µM
same,% Inhibition @ 0.1 uM,"Experiment #2, 0.1 uM",3.1%
same,% Inhibition @ 1 uM,"Experiment #2, 1 uM",39.7%
same,% Inhibition @ 10 uM,"Experiment #2, 10 uM",83.2%
same,% Inhibition @ 100 uM,"Experiment #2, 100 uM",94.3%
ASGSCMAFCFUFUMTEGE [RG-NG-1024],IC50,Experiment #3,> 100 µM
same,% Inhibition @ 0.1 uM,"Experiment #3, 0.1 uM",−17%
same,% Inhibition @ 1 uM,"Experiment #3, 1 uM",−4.7%
same,% Inhibition @ 10 uM,"Experiment #3, 10 uM",6.5%
same,% Inhibition @ 100 uM,"Experiment #3, 100 uM",35.2%
ASGSCMAFCFUFUMUS [RG-NG-1014],IC50,Experiment #2,> 100 µM
same,% Inhibition @ 0.1 uM,"Experiment #2, 0.1 uM",14.9%
same,% Inhibition @ 1 uM,"Experiment #2, 1 uM",−5.5%
same,% Inhibition @ 10 uM,"Experiment #2, 10 uM",8.6%
same,% Inhibition @ 100 uM,"Experiment #2, 100 uM",20.4%
ASGSCMAFCFUFUMUSAM [RG-NG-1038],IC50,Table 8,8.23 µM
same,% Inhibition @ Concentration 100 uM,,81.3%
same,% Inhibition @ Concentration 0.1 uM,,17.9%
same,% Inhibition @ Concentration 1 uM,,25.4%
same,% Inhibition @ Concentration 10 uM,,47.4%
ASGSCMAFCFUFUMUSDM [RG-NG-1037],IC50,Table 8,≥ 100 µM
same,% Inhibition @ Concentration 100 uM,,10.7%
same,% Inhibition @ Concentration 0.1 uM,,11.1%
same,% Inhibition @ Concentration 1 uM,,9.2%
same,% Inhibition @ Concentration 10 uM,,2.4%
ASGSCMAFCFUFUMUSED [RG-NG-1039],% Inhibition @ Concentration 100 uM,,30.2%
same,% Inhibition @ Concentration 0.1 uM,,27.3%
same,% Inhibition @ Concentration 1 uM,,27%
same,% Inhibition @ Concentration 10 uM,,35.8%
ASGSCMAFCFUFUMUSGD [RG-NG-1033],IC50,Table 8,0.13 µM
same,% Inhibition @ Concentration 100 uM,,97.3%
same,% Inhibition @ Concentration 0.1 uM,,44.9%
same,% Inhibition @ Concentration 1 uM,,80.9%
same,% Inhibition @ Concentration 10 uM,,96.5%
ASGSCMAFCFUFUMUSGE [RG-NG-1025],IC50,Experiment #3,1.85 µM
same,% Inhibition @ 0.1 uM,"Experiment #3, 0.1 uM",−3.8%
same,% Inhibition @ 1 uM,"Experiment #3, 1 uM",36.5%
same,% Inhibition @ 10 uM,"Experiment #3, 10 uM",84.1%
same,% Inhibition @ 100 uM,"Experiment #3, 100 uM",96.4%
ASGSCMAFCFUFUMUSGM [RG-NG-1034],IC50,Table 8,1.2 µM
same,% Inhibition @ Concentration 100 uM,,99.7%
same,% Inhibition @ Concentration 0.1 uM,,14.3%
same,% Inhibition @ Concentration 1 uM,,44.8%
same,% Inhibition @ Concentration 10 uM,,85.2%
ASGSCMAFCFUFUMUSIM [RG-NG-1035],IC50,Table 8,0.76 µM
same,% Inhibition @ Concentration 100 uM,,98.5%
same,% Inhibition @ Concentration 0.1 uM,,27.2%
same,% Inhibition @ Concentration 1 uM,,46.3%
same,% Inhibition @ Concentration 10 uM,,91.3%
